Source: US10815219B2, “2,4-diaminoquinazoline derivatives for inhibiting endoplasmic reticulum (ER) stress” (The Board of Regents of the University of Oklahoma, priority 2017, dated 2020)

How the values were obtained:
INS-1 cells [1] = assay: MTT viability assay, INS-1 cells treated with Tm; type: cell-based, rat; conditions: Tm 0.1 μg/mL, 72 h, FIG. 3A
Description: (§1) To rule out the possibility of an ATP-specific (rather than viability) effect of the compounds, we used the MTT assay, which measures the activity of NAD(P)H-dependent cellular oxidoreductase enzymes, as an orthogonal method to measure cell viability. […] To confirm that the protective effect of 9c on β cells is not INS-1 cell-specific, another β cell line, βTC6, was used. […] To determine whether the protective effect of 9c on β cells is specific to Tm-induced stress, we used another ER stressor, BFA, which inhibits a key guanine nucleotide exchange factor essential for the transport of proteins from the ER to the Golgi, to treat INS-1 cells.
(§2) INS-1 cells or βTC6 cells were seeded at 3×10^3 cells/well in a 384-well plate and treated with compounds at the indicated concentrations. After 3 d treatment, the medium was aspirated and 10 μl of MTT reagent (Cayman Chemical, MI, USA, prepared according to manufacturer's instruction) to each well was added and mixed gently for one minute on an orbital shaker. The cells were then incubated for three hours at 37° C. in a CO2 incubator. After incubation, add 100 μl of crystal dissolving solution to each well, and incubate for 4 hours in a 37° C. CO2 incubator. Viability will be measured for the absorbance to each sample at 570 nm using EnVision multilabel plate reader (PerkinElmer, MA, USA).

βTC6 cells [2] = assay: βTC6 cell viability after Tm treatment (CellTiter-Glo); type: cell-based; conditions: Tm 0.25 μg/mL, 72 h, FIG. 3B
Description: as §1
INS-1 cells or βTC6 cells were seeded at 3×10^3 cells/well in a 384-well plate and treated with compounds at the indicated concentrations. After 3 d treatment, the medium was aspirated and 20 μL/well of CellTiter-Glo reagent (Promega, WI, USA) was added for the detection of intracellular ATP levels. Cell viability was measured with an EnVision multilabel plate reader (PerkinElmer, MA, USA).

INS-1 cells [3] = assay: Glucose-stimulated insulin secretion in Tm-treated INS-1 cells; type: cell-based, rat; conditions: Tm 0.1 μg/mL, 24 h, 25 mM glucose, FIG. 5E
Description: ER stress also impairs the most important function of β cells: the biosynthesis and secretion of insulin. Multiple steps of insulin synthesis and secretion are impaired under ER stress; they include insulin gene transcription, insulin mRNA stability, protein translation, and the insulin protein secretory process. First, we examined whether compound 9c could rescue Tm-suppressed mRNA levels of insulin genes. […] Second, we examined whether compound 9c affects the expression of β cell transcription factors PDX1 and MafA, which control β cell identity and the expression of insulin genes. Chronic exposure to supraphysiologic concentrations of glucose and its associated ER stress cause the down-regulation of expression of PDX1 and MafA. Consistent with this notion, Tm decreased the levels of PDX1 and MafA mRNA expression levels in INS-1 cells. […] Next, we explored whether compound 9c re-establishes Tm-impaired glucose-stimulated insulin secretion (GSIS).
INS-1 or primary human islet cells were plated in 96-well plates. […] The secreted insulin was measured with insulin ELISA kits (for mouse insulin from Millipore and for human insulin from LifeTech). Cells were lysed with RIPA buffer (50 mM Tris HCl pH 7.4, 1% NP-40, 0.25% sodium deoxycholate, 150 mM NaCl), and total cellular protein was determined with a Bradford protein assay. […]

βTC6 cells [4] = assay: βTC6 cell viability after Tm treatment (MTT); type: cell-based; conditions: Tm 0.25 μg/mL, 72 h, FIG. 3C
Description: as §1, §2

Bip and GRP94 mRNA = assay: qRT-PCR of Bip and GRP94 in Tm-treated INS-1 cells; type: cell-based, rat; conditions: Tm 0.1 μg/mL, 9c 20 μM, FIG. 7A, B
Description: We then asked whether 9c affects the activation of ATF6 in β cells under ER stress. Activated ATF6 acts as a homodimer or as an ATF6-XBP1s heterodimer to control the up-regulation of select UPR target genes including the chaperone proteins BiP and GRP94. We evaluated the effect of 9c on the mRNA levels of chaperones Bip and GRP94 in β cells in the presence of Tm.
(§3) INS-1 cells were seeded at 4×10^5 cells/well in 6-well plates and treated with compounds for the indicated times. Total RNA was extracted using TRIzol reagent (Invitrogen, Carlsbad, Calif.) according to the manufacturer's protocol, and 2 μg of total RNA was reverse transcribed using a Superscript kit (Invitrogen). Real-time PCR was performed in 96-well format using SYBR Select Master Mix (Applied Biosystems, Foster City, Calif.) with an ABI 7500 PCR system (Applied Biosystems). The primer sequences used are shown in U.S. Ser. No. 62/542,408, Aug. 8, […].

ATF4 and CHOP mRNA = assay: qRT-PCR of ATF4 and CHOP in Tm-treated INS-1 cells; type: cell-based, rat; conditions: Tm 0.1 μg/mL, 9c 20 μM, FIG. 8A, B
Description: We then determined the effect of 9c on the activation of the PERK pathway in β cells under ER stress. Activated PERK phosphorylates eukaryotic translation initiator factor 2a (eIF2α), which in turn attenuates general protein synthesis to relieve ER load. EIF2α phosphorylation also allows the selective translation of ATF4 mRNA, which encodes a transcription factor that induces the expression of the pro-apoptotic gene C/EBP-homologous protein (CHOP). Thus, we used ATF4 and CHOP expression levels as markers of PERK pathway activation. […] Together, our results that 9c inhibited the ER stress-mediated activation of all three UPR pathways indicate that 9c protects β cell survival by alleviating ER stress.
as §3

In the case of `COc1ccc(CNc2nc(N3CCCCC3CO)nc3ccccc23)cc1` (racemic) [Compound 9c, (1-(4-((4-methoxybenzyl)amino)quinazolin-2-yl)piperidin-2-yl)methanol], the “viability of INS-1 cells (MTT)” value (INS-1 cells [1]) is reported as “increase in viability of INS-1 cells”, the “viability of βTC6 cells (intracellular ATP level)” value (βTC6 cells [2]) is reported as “rescued the viability of βTC6 cells in a dose-dependent manner” and the “glucose-stimulated insulin secretion (GSIS)” value (INS-1 cells [3]) is reported as “significantly rescued the GSIS”. The “viability of βTC6 cells (MTT, NAD(P)H-dependent oxidoreductase activity)” value (βTC6 cells [4]) was “rescued the viability of βTC6 cells in a dose-dependent manner”, the “Bip and GRP94 mRNA levels” value (Bip and GRP94 mRNA) was “almost completely suppressed” and the “ATF4 and CHOP mRNA levels” value (ATF4 and CHOP mRNA) was “decrease in both their levels”.
